# From PMC9481636, “Mechanism of action of non-camptothecin inhibitor Genz-644282 in topoisomerase I inhibition” (Communications Biology, 2022)
# Changes are numbered by the printed parent chain.
# How the values were obtained:
# Assay type in all cases: biochemical
# Topoisomerase I (TOP1) [1] = target: T1, Topoisomerase I (TOP1) (Homo sapiens, UniProt P11387); assay: nicked-DNA accumulation/relaxation assay with purified recombinant wild-type TOP1
# T1 construct: 6×His-tagged TOP1 (baculovirus, High Five cells)
# T1 sequence (P11387 2-765): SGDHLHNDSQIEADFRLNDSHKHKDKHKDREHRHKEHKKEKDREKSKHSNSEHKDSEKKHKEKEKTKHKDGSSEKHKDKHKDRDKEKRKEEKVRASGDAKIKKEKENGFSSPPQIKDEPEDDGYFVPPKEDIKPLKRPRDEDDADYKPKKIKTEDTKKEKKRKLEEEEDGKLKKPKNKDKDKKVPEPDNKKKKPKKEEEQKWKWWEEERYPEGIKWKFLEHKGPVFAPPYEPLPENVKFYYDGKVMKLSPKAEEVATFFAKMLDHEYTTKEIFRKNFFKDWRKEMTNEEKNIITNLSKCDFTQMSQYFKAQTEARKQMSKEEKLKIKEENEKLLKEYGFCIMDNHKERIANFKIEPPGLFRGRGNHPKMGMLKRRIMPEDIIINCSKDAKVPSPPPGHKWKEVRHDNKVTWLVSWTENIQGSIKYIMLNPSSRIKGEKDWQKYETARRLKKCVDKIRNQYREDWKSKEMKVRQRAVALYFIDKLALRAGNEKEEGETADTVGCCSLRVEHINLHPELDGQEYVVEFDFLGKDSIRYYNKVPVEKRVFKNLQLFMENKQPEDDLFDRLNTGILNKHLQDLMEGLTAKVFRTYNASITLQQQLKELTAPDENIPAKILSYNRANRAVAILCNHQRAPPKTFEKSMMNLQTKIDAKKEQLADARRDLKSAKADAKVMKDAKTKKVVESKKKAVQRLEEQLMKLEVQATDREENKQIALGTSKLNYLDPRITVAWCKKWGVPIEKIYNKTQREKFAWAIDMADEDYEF
# Topoisomerase I (TOP1) [2] = target: T2, Topoisomerase I (TOP1) (Homo sapiens, UniProt P11387, N722S); assay: nicked-DNA accumulation assay with purified recombinant TOP1 N722S, […] Genz
# T2 construct: 6×His-tagged TOP1 (baculovirus, High Five cells)
# T2 sequence (P11387 2-765 N722S): T1 sequence (P11387 2-765) with N721S
# Topoisomerase I (TOP1) [3] = target: T3, Topoisomerase I (TOP1) (Homo sapiens, UniProt P11387, N722A); assay: nicked-DNA accumulation/relaxation assay with purified recombinant TOP1 N722A
# T3 construct: 6×His-tagged TOP1 (baculovirus, High Five cells)
# T3 sequence (P11387 2-765 N722A): T1 sequence (P11387 2-765) with N721A
compound,measurement,setting,value
"CNCCn1c(=O)c2cc(OC)c(OC)cc2c2cnc3cc4c(cc3c21)OCO4 [Genz, 8,9-dimethoxy-5-(2-N-methylaminoethyl)-2,3-methylenedioxy-5H-dibenzo[c,h][1,6]naphthyridin-6-one]",nicked-DNA accumulation/relaxation assay with purified recombinant wild-type TOP,Topoisomerase I (TOP1) [1],slight accumulation of nicked DNA was also observed for the wild type
same,"nicked-DNA accumulation assay with purified recombinant TOP1 N722S, 10 μM Genz",Topoisomerase I (TOP1) [2],The enhanced accumulation of nicked DNA appeared only in the N722S mutant after treatment with Genz
same,nicked-DNA accumulation/relaxation assay with purified recombinant TOP1 N722A,Topoisomerase I (TOP1) [3],accumulation of nicked DNA on N722A and N722S proteins after treatment with Genz was higher than that on the wild type
